In ChEMBL document CHEMBL4715771 (Bioorg Med Chem, 2016):

Assays:
MDA-MB-231 = experiment: Antiproliferative activity against triple-negative human MDA-MB-231 cells overexpressing c-Met assessed as inhibition of cell proliferation measured after 72 hrs by MTT assay; assay type: functional, cell-based; conditions: MDA-MB-231, 72 h
MDA-MB-468 = experiment: Antiproliferative activity against triple-negative human MDA-MB-468 cells overexpressing c-Met assessed as inhibition of cell proliferation measured after 72 hrs by MTT assay; assay type: functional, cell-based; conditions: MDA-MB-468, 72 h
[1] = target: Hepatocyte growth factor receptor (Homo sapiens, UniProt P08581); experiment: Inhibition of c-MET kinase domain (unknown origin) using Tyr6 peptide as substrate measured after 1 hr in presence of ATP by Z'-lyte kinase assay
Chain of Hepatocyte growth factor receptor (P08581 whole entry, the tested form may be a part): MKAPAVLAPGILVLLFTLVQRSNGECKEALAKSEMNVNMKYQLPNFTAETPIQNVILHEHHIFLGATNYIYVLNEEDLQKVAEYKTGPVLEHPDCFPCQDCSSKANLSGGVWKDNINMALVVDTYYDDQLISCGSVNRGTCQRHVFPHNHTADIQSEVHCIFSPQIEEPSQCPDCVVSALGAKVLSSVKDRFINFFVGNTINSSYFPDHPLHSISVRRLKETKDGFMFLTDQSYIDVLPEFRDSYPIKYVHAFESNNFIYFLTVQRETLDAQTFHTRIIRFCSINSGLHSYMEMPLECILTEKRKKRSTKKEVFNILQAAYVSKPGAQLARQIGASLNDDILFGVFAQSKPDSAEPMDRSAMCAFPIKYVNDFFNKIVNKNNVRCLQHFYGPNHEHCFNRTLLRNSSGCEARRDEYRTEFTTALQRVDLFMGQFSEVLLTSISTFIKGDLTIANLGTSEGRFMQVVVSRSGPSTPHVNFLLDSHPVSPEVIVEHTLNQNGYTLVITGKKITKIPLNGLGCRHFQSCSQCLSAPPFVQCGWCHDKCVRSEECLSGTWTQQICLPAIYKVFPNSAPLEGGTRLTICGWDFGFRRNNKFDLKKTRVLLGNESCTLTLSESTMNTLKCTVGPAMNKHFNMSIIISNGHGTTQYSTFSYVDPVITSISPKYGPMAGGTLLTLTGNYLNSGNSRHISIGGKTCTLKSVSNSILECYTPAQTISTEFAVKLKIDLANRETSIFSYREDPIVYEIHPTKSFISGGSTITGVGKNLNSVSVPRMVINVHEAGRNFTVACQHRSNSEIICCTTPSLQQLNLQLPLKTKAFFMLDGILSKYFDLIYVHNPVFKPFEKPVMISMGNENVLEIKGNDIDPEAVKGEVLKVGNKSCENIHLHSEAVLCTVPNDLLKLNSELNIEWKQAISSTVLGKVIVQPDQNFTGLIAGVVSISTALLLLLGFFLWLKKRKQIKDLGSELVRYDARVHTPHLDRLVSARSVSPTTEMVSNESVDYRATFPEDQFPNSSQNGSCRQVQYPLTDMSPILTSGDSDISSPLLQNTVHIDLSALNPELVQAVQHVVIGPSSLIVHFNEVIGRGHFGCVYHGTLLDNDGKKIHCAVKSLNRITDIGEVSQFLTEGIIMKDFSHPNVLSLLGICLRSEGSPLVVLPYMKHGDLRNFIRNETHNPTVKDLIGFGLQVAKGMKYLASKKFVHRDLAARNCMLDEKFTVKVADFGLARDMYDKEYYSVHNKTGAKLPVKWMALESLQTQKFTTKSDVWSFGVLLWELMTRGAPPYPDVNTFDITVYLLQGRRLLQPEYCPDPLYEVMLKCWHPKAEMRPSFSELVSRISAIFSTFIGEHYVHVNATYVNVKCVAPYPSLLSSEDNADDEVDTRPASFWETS

SMILES | IC50 (MDA-MB-231) [µM] | IC50 (MDA-MB-468) [µM] | IC50 [1] [µM]
C/C1=C\[C@H](OC(=O)Nc2ccccc2Cl)C[C@](C)(O)/C=C/[C@H](C(C)C)CC/C(C)=C/CC1 | 13.7 | 14.5 | –
CCc1ccc(NC(=O)O[C@H]2/C=C(\C)CC/C=C(\C)CC[C@@H](C(C)C)/C=C/[C@@](C)(O)C2)cc1 | 26.3 | 25.7 | –
C/C1=C\[C@H](OC(=O)Nc2cccc3ccccc23)C[C@](C)(O)/C=C/[C@H](C(C)C)CC/C(C)=C/CC1 | > 50 | > 50 | –
C/C1=C\[C@H](OC(=O)Nc2ccc(Cl)cc2)C[C@](C)(O)/C=C/[C@H](C(C)C)CC/C(C)=C/CC1 | 13.4 | 12.8 | –
C/C1=C\[C@H](OC(=O)Nc2ccc(C(F)(F)F)cc2)C[C@](C)(O)/C=C/[C@H](C(C)C)CC/C(C)=C/CC1 | 8.9 | 11.6 | –
C/C1=C\[C@H](OC(=O)Nc2ccc(-c3ccccc3)cc2)C[C@](C)(O)/C=C/[C@H](C(C)C)CC/C(C)=C/CC1 | > 50 | > 50 | –

Now from value to compound:

IC50 (MDA-MB-231) [µM] | IC50 (MDA-MB-468) [µM] | IC50 [1] [µM] | SMILES
16.2 | 19.5 | – | C/C1=C\[C@H](OC(=O)Nc2cccc(F)c2)C[C@](C)(O)/C=C/[C@H](C(C)C)CC/C(C)=C/CC1
19.8 | 22.7 | – | C/C1=C\[C@H](OC(=O)Nc2ccccc2)C[C@](C)(O)/C=C/[C@H](C(C)C)CC/C(C)=C/CC1
9.1 | 10.6 | 3.4 | C/C1=C\[C@H](OC(=O)Nc2cccc(Cl)c2)C[C@](C)(O)/C=C/[C@H](C(C)C)CC/C(C)=C/CC1
27.6 | 27.9 | – | C/C1=C\[C@H](OC(=O)Nc2cccc(C)c2)C[C@](C)(O)/C=C/[C@H](C(C)C)CC/C(C)=C/CC1
